Measured values: paper PMC12494099, “Discovery and Characterization of Novel IKZF1/3 Glue Degraders against Multiple Hematological Cancer Cell Lines” (Oncology Research, 2025)

How the values were obtained:
Format in all cases: cell-based
CRBN^−/− NCI-H929 cells = experiment: Cell apoptosis assay, CRBN knockout cells
Protocol: […] NCI-H929 and MV-4-11 cells were seeded at a density of 1 × 10^6 cells/well in 6-well tissue culture-treated plates. […] On day 7, GFP-positive cells were sorted as single cells into 96-well plates. Isolated single-cell clones were screened via western blot analysis, using wild-type NCI-H929 or MV-4-11 cells as positive controls.
Cells (NCI-H929 and MV-4-11) were seeded at a density of 1 × 10^6 cells per well into 6-well dishes. […] Apoptosis was assessed using an Annexin V-FITC kit (#ab14085; Abcam, MA, USA) on a FACS Calibur Flow Cytometer (Becton Dickinson, Franklin Lakes, NJ, USA). […] Finally, the samples were analyzed using a FACS Calibur Flow Cytometer.

[1] = system: control vector NCI-H929 cells; experiment: Cell apoptosis assay, control vector cells
Protocol: […] NCI-H929 and MV-4-11 cells were seeded at a density of 1 × 10^6 cells/well in 6-well tissue culture-treated plates. According to the manufacturer’s protocol (Santa Cruz Biotechnology, Inc, Dallas, TX, USA), CRBN CRISPR/Cas9 knockout Plasmid (#sc-412142), CRBN HDR plasmid (#sc-412142-HDR), UltraCruz® Transfection Reagent (#sc-395739) were pre-mixed in Plasmid Transfection Medium (#sc-108062) at a 1:1:2 mass ratio, and cells were transiently transfected in a 37°C, 5% CO2 incubator. After 72 h of infection, the medium was replaced with complete medium containing 3 μg/mL puromycin for 5–7 days. On day 7, GFP-positive cells were sorted as single cells into 96-well plates. Isolated single-cell clones were screened via western blot analysis, using wild-type NCI-H929 or MV-4-11 cells as positive controls.
Cells (NCI-H929 and MV-4-11) were seeded at a density of 1 × 10^6 cells per well into 6-well dishes. […] Apoptosis was assessed using an Annexin V-FITC kit (#ab14085; Abcam, MA, USA) on a FACS Calibur Flow Cytometer (Becton Dickinson, Franklin Lakes, NJ, USA). For cell cycle analysis, cells were fixed in 75% ethanol (−20°C/overnight), washed with PBS (pH = 7.2–7.4, 1×), treated with RNase A (0.2 mg/mL, 37°C/30 min), stained with PI (10 μg/mL), and analyzed on the same instrument. Finally, the samples were analyzed using a FACS Calibur Flow Cytometer.

U2932 = experiment: Cell viability (CCK-8) assay; conditions: Homo sapiens, U2932; DLBCL, 96 h; read-out: IC50 (μM) U2932
Protocol: (§1) The plated at a density of 15,000 cells per well, and each well contained 100 µL of medium. Subsequently, different compounds (MGD-AX, MGD-BX, MGD-CX) were added to each well. […] To evaluate the antiproliferative effects of these compounds, the Cell Counting Kit-8 (CCK-8, #CX007, Epizyme, Shanghai, China) was used. All procedures were carried out in strict accordance with the manufacturer’s instructions (Dojindo Laboratories, Mamoto Ken, Japan).

MOLM-13 = experiment: Cell viability (CCK-8) assay; conditions: Homo sapiens, MOLM-13; AML, 96 h; read-out: IC50 (μM) MOLM-13
Protocol: as §1

SU-DHL-4 = experiment: Cell viability (CCK-8) assay; conditions: Homo sapiens, SU-DHL-4; DLBCL, 96 h; read-out: IC50 (μM) SU-DHL-4
Protocol: as §1

OPM-2 = experiment: Cell viability (CCK-8) assay; conditions: Homo sapiens, OPM-2; MM, 96 h; read-out: IC50 (μM) OPM-2
Protocol: as §1

MV-4-11 = experiment: Cell viability (CCK-8) assay; conditions: for IC50: Homo sapiens, MV4-11, 96 h, 96 h, CCK-8
Protocol: as §1

KG-1 = experiment: Cell viability (CCK-8) assay; conditions: Homo sapiens, KG-1; AML, 96 h; read-out: IC50 (μM) KG-1
Protocol: as §1

TMD8 = experiment: Cell viability (CCK-8) assay; conditions: Homo sapiens, TMD8; DLBCL, 96 h; read-out: IC50 (μM) TMD8
Protocol: as §1

WSU-DLCL-2 = experiment: Cell viability (CCK-8) assay; conditions: Homo sapiens, WSUDLCL2; DLBCL, 96 h; read-out: IC50 (μM) WSU-DLCL-2
Protocol: as §1

Skm-1 = experiment: Cell viability (CCK-8) assay; conditions: Homo sapiens, SKM-1; AML, 96 h; read-out: IC50 (μM) Skm-1
Protocol: as §1

U937 = experiment: Cell viability (CCK-8) assay; conditions: Homo sapiens, U-937; AML, 96 h; read-out: IC50 (μM) U937
Protocol: as §1

NCI-H929 = experiment: Cell viability (CCK-8) assay; conditions: Homo sapiens, NCI-H929, 96 h
Protocol: as §1

Ocl-Ly3 = experiment: Cell viability (CCK-8) assay; conditions: for IC50: 96 h, CCK-8
Protocol: as §1

MUTZ-1 = experiment: Cell viability (CCK-8) assay; conditions: AML, 96 h; read-out: IC50 (μM) MUTZ-1
Protocol: as §1

RPMI-8226 = experiment: Cell viability (CCK-8) assay; conditions: Homo sapiens, RPMI-8226; MM, 96 h; read-out: IC50 (μM) RPMI-8226
Protocol: as §1

IKZF3-HiBiT = target: T1, IKZF3-HiBiT (Homo sapiens, UniProt Q96SW2+Q9UKT9); experiment: Quantitative degradation assay using the HiBiT system (HEK293T); conditions: for reduction in IKZF3: 1 μM, time course; for DC50 / Dmax: HEK293T IKZF3-HiBiT, 24 h; for Dmax: HEK-293T, read-out: maximal degradation (Dmax) on IKZF3
T1 construct: expressed in transfected cells; host or cells: HEK293T
T1 sequence (Q9UKT9 whole entry): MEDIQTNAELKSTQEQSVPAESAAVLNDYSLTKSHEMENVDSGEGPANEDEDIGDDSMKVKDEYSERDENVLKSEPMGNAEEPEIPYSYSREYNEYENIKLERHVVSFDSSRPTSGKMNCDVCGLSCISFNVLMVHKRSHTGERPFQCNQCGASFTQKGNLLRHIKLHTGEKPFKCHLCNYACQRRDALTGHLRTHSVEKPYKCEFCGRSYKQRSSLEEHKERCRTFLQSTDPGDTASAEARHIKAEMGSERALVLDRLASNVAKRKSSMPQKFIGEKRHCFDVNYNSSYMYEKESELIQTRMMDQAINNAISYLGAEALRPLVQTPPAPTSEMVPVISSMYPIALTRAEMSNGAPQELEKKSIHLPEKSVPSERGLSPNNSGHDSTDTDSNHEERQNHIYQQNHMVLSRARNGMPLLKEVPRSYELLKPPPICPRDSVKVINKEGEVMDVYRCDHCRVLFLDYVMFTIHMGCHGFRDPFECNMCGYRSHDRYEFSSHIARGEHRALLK
T1 sequence (Q96SW2 whole entry): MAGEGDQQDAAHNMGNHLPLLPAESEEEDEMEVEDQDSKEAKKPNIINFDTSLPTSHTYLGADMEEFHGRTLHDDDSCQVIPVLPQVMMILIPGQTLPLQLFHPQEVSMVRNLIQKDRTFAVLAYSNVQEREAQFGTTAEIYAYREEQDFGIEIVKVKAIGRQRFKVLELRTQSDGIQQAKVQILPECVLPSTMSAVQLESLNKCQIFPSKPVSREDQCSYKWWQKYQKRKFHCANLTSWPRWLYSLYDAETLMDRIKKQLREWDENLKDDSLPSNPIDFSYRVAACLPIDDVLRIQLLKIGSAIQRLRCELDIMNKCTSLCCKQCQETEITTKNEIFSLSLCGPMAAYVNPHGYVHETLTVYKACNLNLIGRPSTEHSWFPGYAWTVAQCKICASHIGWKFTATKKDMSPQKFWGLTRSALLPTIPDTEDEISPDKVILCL
T1 sequence (Q16531 whole entry partner): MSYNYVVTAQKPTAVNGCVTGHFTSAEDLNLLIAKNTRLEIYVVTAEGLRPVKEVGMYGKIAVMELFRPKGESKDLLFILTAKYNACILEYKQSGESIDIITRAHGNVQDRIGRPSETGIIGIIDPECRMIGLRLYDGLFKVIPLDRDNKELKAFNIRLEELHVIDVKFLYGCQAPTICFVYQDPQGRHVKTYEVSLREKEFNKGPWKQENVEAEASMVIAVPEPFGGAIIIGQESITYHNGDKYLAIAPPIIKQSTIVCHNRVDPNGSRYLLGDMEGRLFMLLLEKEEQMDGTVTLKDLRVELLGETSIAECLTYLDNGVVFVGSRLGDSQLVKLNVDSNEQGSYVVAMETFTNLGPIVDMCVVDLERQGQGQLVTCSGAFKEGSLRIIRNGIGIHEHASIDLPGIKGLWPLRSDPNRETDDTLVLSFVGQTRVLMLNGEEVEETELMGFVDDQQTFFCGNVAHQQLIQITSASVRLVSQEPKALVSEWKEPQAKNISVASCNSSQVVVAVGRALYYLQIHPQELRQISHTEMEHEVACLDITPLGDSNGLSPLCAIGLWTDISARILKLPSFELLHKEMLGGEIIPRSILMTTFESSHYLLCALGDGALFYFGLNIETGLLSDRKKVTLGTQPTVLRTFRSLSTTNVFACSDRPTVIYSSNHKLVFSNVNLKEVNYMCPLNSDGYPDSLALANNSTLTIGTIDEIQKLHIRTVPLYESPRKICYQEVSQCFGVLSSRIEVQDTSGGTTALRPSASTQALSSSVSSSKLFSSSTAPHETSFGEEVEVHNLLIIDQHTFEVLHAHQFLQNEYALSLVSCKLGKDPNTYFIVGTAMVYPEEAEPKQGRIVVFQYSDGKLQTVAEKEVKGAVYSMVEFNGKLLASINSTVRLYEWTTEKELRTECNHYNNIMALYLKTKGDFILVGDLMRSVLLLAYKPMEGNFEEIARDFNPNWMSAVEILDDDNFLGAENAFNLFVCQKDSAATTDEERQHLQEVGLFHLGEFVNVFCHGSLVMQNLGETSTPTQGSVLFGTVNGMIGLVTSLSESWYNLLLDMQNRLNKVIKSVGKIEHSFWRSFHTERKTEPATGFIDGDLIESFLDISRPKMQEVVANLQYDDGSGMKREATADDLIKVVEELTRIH

| Compound | apoptosis (in words) (CRBN^−/− NCI-H929 cells) | apoptosis (in words) [1] | IC50 (U2932) | IC50 (MOLM-13) | IC50 (SU-DHL-4) | IC50 (OPM-2) | IC50 (MV-4-11) | IC50 (KG-1) | IC50 (TMD8) | IC50 (WSU-DLCL-2) | IC50 (Skm-1) | IC50 (U937) | IC50 (NCI-H929) | IC50 (Ocl-Ly3) | IC50 (MUTZ-1) | IC50 (RPMI-8226) | DC50 (IKZF3-HiBiT) | Dmax (IKZF3-HiBiT) | further results |
| --- | --- | --- | --- | --- | --- | --- | --- | --- | --- | --- | --- | --- | --- | --- | --- | --- | --- | --- | --- |
| CN1CCN(Cc2cccc(C(=O)NC3CCC(=O)NC3=O)c2)CC1 (stereo not shown) [MGD-A7, N-(2,6-dioxopiperidin-3-yl)-3-((4-methylpiperazin-1-yl)methyl)benzamide] | neither compound elicited apoptosis | induced significant apoptosis | 3.34 µM | 19.3 µM | 10.3 µM | 0.153 µM | 0.59 ± 0.07 µM | 1.24 µM | 6.77 µM | 3.82 µM | 4.03 µM | 3.83 µM | 0.67 ± 0.1 µM | 2.32 ± 0.22 µM | 13.2 µM | 2.11 µM | 110 nM | 86.4% | reduction in IKZF3 (IKZF3-HiBiT; 12 h): > 80% |
| CN1CCN(Cc2cccc(C(=O)NC3CCC(=O)NC3=O)c2F)C(=O)C1 (stereo not shown) [MGD-C9, N-(2,6-dioxopiperidin-3-yl)-2-fluoro-3-((4-methyl-2-oxopiperazin-1-yl)methyl)benzamide] | neither compound elicited apoptosis | induced significant apoptosis | 1.25 µM | 9.11 µM | 7.37 µM | 0.0845 µM | 0.21 ± 0.02 µM | 0.33 µM | 5.03 µM | 2.24 µM | 2.03 µM | 1.24 µM | 0.26 ± 0.03 µM | 0.81 ± 0.09 µM | 10.5 µM | 1.23 µM | 57 nM | 92.1% | fold higher antiproliferative activity than avadomide (MV-4-11; MV-4-11 cells): approximately 4 fold; times stronger antiproliferative activity than avadomide (Ocl-Ly3; Ocl-Ly3 cells): approximately 20 times; reduction in IKZF3 (IKZF3-HiBiT; 8 h): > 70% |
